Data reported in ChEMBL document CHEMBL5321208, “The effect of side chain variations on quinazoline-pyrimidine G-quadruplex DNA ligands” (Eur J Med Chem, 2023).
pIC50, pKd: −log10 of the molar value. Calls of active or inactive are those of the source. No cut-off for these calls is given here.

Legend:
[1] = tested on: dsDNA; assay: Binding affinity to double stranded DNA (unknown origin) assessed as thermal stabilization at 1 to 8 uM measured at 10 to 95 degreeC by FRET analysis; type: nucleic-acid assay; conditions: dose 1-8 µM
[2] = tested on: Quadruplex DNA; assay: Binding affinity to FAM/TAMRA-labelled parallel c-MYC Pu24T G4 DNA (unknown origin) assessed as thermal stabilization at 1 to 8 uM measured at 10 to 95 degreeC by FRET analysis; type: nucleic-acid assay; conditions: dose 1-8 µM
[3] = tested on: Quadruplex DNA; assay: Binding affinity to FAM/TAMRA-labelled parallel KRAS G4 DNA (unknown origin) assessed as thermal stabilization in the presence of 15 equivalents of double stranded DNA by FRET competition assay; type: nucleic-acid assay
[4] = tested on: Quadruplex DNA; assay: Binding affinity to FAM/TAMRA-labelled c-KIT1 G4 DNA (unknown origin) assessed as thermal stabilization at 1 to 8 uM measured at 10 to 95 degreeC by FRET analysis; type: nucleic-acid assay; conditions: dose 1-8 µM
[5] = tested on: Quadruplex DNA; assay: Binding affinity to FAM/TAMRA-labelled parallel c-MYC Pu24T G4 DNA (unknown origin) assessed as thermal stabilization by measuring change in melting temperature at 2 uM in the presence of 100 equivalents of double stranded DNA by FRET competition assay; type: nucleic-acid assay
[6] = tested on: Quadruplex DNA; assay: Binding affinity to FAM/TAMRA-labelled parallel 25ceb G4 DNA (unknown origin) assessed as thermal stabilization at 1 to 8 uM measured at 10 to 95 degreeC by FRET analysis; type: nucleic-acid assay; conditions: dose 1-8 µM
[7] = tested on: Quadruplex DNA; assay: Binding affinity to FAM/TAMRA-labelled parallel KRAS G4 DNA (unknown origin) assessed as thermal stabilization by measuring change in melting temperature at 2 uM in the presence of 100 equivalents of double stranded DNA by FRET competition assay; type: nucleic-acid assay
[8] = tested on: Quadruplex DNA; assay: Binding affinity to FAM/TAMRA-labelled 21g G4 DNA (unknown origin) assessed as thermal stabilization at 1 to 8 uM measured at 10 to 95 degreeC by FRET analysis; type: nucleic-acid assay; conditions: dose 1-8 µM
[9] = tested on: Quadruplex DNA; assay: Binding affinity to FAM/TAMRA-labelled c-KIT2 G4 DNA (unknown origin) assessed as thermal stabilization at 1 to 8 uM measured at 10 to 95 degreeC by FRET analysis; type: nucleic-acid assay; conditions: dose 1-8 µM
[10] = tested on: Quadruplex DNA; assay: Binding affinity to parallel c-MYC Pu24T G4 DNA (unknown origin) assessed as change in topology at 5 uM by CD spectra analysis; type: nucleic-acid assay
[11] = tested on: Quadruplex DNA; assay: Binding affinity to parallel c-MYC Pu24T G4 DNA (unknown origin) assessed as thermal stabilization by measuring change in melting temperature at 5 uM measured at 1:1 DNA to ligand ratio by CD spectra analysis; type: nucleic-acid assay
[12] = tested on: Quadruplex DNA; assay: Binding affinity to FAM/TAMRA-labelled antiparallel Bom17 G4 DNA (unknown origin) assessed as thermal stabilization at 1 to 8 uM measured at 10 to 95 degreeC by FRET analysis; type: nucleic-acid assay; conditions: dose 1-8 µM
[13] = tested on: Quadruplex DNA; assay: Binding affinity to FAM/TAMRA-labelled antiparallel TBA G4 DNA (unknown origin) assessed as thermal stabilization at 1 to 8 uM measured at 10 to 95 degreeC by FRET analysis; type: nucleic-acid assay; conditions: dose 1-8 µM
[14] = tested on: Quadruplex DNA; assay: Binding affinity to FAM/TAMRA-labelled parallel c-MYC Pu24T G4 DNA (unknown origin) assessed as thermal stabilization in the presence of 15 equivalents of double stranded DNA by FRET competition assay; type: nucleic-acid assay
[15] = target: Quadruplex DNA; assay: Binding affinity to 5'-Cy5-labelled parallel c-MYC Pu24T G4 DNA (unknown origin) assessed as dissociation constant by MST analysis; type: nucleic-acid assay
[16] = tested on: Quadruplex DNA; assay: Binding affinity to FAM/TAMRA-labelled c-MYC Pu22 G4 DNA (unknown origin) assessed as thermal stabilization at 1 to 8 uM measured at 10 to 95 degreeC by FRET analysis; type: nucleic-acid assay; conditions: dose 1-8 µM
[17] = tested on: Quadruplex DNA; assay: Binding affinity to FAM/TAMRA-labelled parallel KRAS G4 DNA (unknown origin) assessed as thermal stabilization at 1 to 8 uM measured at 10 to 95 degreeC by FRET analysis; type: nucleic-acid assay; conditions: dose 1-8 µM
[18] = Antitumor activity against KPC mouse pancreatic cancer organoid expressing lentiviral modified GFP co-cultured with WT C57BL/6J mouse pancreatic stellate cells expressing mKate2 assessed as inhibition of cell growth incubated for 5 days by resazurin dye based fluorescence microscopic analysis; type: functional, tissue-based; conditions: 120 h
[19] = Cytotoxicity against wildtype C57BL/6J mouse cancer activated fibroblast cells assessed as inhibition of cell growth incubated for 5 days by resazurin dye based fluorescence microscopic analysis; type: toxicity

Cc1cc(NCCN2CCNCC2)nc(Nc2nc(C)c3ccc4c(c3n2)CCCC4)n1
Activity [1]: inactive | Activity [2]: Active

Cc1cc(NCCCN2CCCC2)nc(Nc2nc(C)c3ccc4c(c3n2)CCCC4)n1
Activity [3]: Active | Activity [1]: inactive | Activity [4]: Active | ΔTm [5]: 7 °C | Activity [6]: inactive | ΔTm [7]: 10 °C | Activity [8]: Active | Activity [9]: Active | Activity [10]: inactive | ΔTm [11]: 8 °C | Activity [12]: inactive | Activity [2]: Active | Activity [13]: inactive | Activity [14]: Active | pKd [15]: 6.61 | Activity [16]: Active

Cc1cc(NCCN2CCN(C)CC2)nc(Nc2nc(C)c3ccc4c(c3n2)CCCC4)n1
Activity [1]: inactive | Activity [2]: Active | Activity [17]: Active

Cc1cc(NCCN2CCOCC2)nc(Nc2nc(C)c3ccc4c(c3n2)CCC4)n1
Activity [1]: inactive

Cc1cc(N2CCN(c3ncccn3)CC2)nc(Nc2nc(C)c3ccc4c(c3n2)CCCC4)n1
Activity [1]: inactive | Activity [2]: inactive | Activity [17]: inactive

Cc1cc(NCCCN2CCN(C)CC2)nc(Nc2nc(C)c3ccc4c(c3n2)CCC4)n1
Activity [3]: Active | Activity [1]: inactive | Activity [4]: Active | ΔTm [5]: 7 °C | Activity [6]: inactive | ΔTm [7]: 10 °C | pIC50 [18]: 6.68 | Activity [8]: Active | IC50 at 5 days [19]: 264 nM | Activity [9]: Active | Activity [10]: inactive | ΔTm [11]: 5 °C | Activity [12]: inactive | Activity [2]: Active | Activity [13]: inactive | Activity [14]: Active | pKd [15]: 6.58 | Activity [16]: Active

Cc1cc(N2CCOCC2)nc(Nc2nc(C)c3ccc4c(c3n2)CCCC4)n1
Activity [1]: inactive

CCN(CC)CCCNc1cc(C)nc(Nc2nc(C)c3ccc4c(c3n2)CCCC4)n1
Activity [3]: Active | Activity [1]: inactive | Activity [4]: Active | ΔTm [5]: 7 °C | Activity [6]: inactive | ΔTm [7]: 10 °C | Activity [8]: Active | Activity [9]: Active | Activity [10]: inactive | ΔTm [11]: 7 °C | Activity [12]: inactive | Activity [2]: Active | Activity [13]: inactive | Activity [14]: Active | pKd [15]: 6.64 | Activity [16]: Active

CCN(CC)c1cc(C)nc(Nc2nc(C)c3ccc4c(c3n2)CCCC4)n1
Activity [1]: inactive | Activity [2]: Active

Cc1cc(N2CCNCC2)nc(Nc2nc(C)c3ccc4c(c3n2)CCCC4)n1
Activity [1]: inactive | Activity [2]: Active | Activity [17]: Active

CCN(CC)CCNc1cc(C)nc(Nc2nc(C)c3ccc4c(c3n2)CCCC4)n1
Activity [1]: inactive | Activity [2]: Active

Cc1cc(NCCCN2CCNCC2)nc(Nc2nc(C)c3ccc4c(c3n2)CCCC4)n1
Activity [1]: inactive | Activity [2]: Active

CCN(CC)c1cc(C)nc(Nc2nc(C)c3ccc4c(c3n2)CCC4)n1
Activity [1]: inactive

CCOC(=O)CCN1CCN(c2cc(C)nc(Nc3nc(C)c4ccc5c(c4n3)CCCC5)n2)CC1
Activity [1]: inactive | Activity [2]: inactive | Activity [17]: inactive

Cc1cc(NCCCN)nc(Nc2nc(C)c3ccc4c(c3n2)CCCC4)n1
Activity [1]: inactive | Activity [2]: Active
